The test system of assay [1] is cell extract of Candida utilis ATCC 26,387. Briefly: Oxidation of secondary alcohols to methylketone by cell extracts of yeasts. It counts as biochemical.
Assay [2] deals with cell extract of Pichia sp. NRRL-Y-11,328. Described as above. The note with it: methanol-grown; cell extract + NAD^+; sec. alcohol to methyl ketone; gas chromatography. It counts as biochemical.
Assay [3] has as its system cell-free soluble extract of Pseudomonas sp. CRL 75 ATCC 21439. To be noted: growth substrate CH3 OH; NAD added.
Method: To prepare the cell-free secondary alcohol dehydrogenous (SADH) system, the washed cells were disrupted with a Wave Energy Ultrasonic Oscillator, Model W201 (Wave Energy System, Inc., Newtown, Pa.) and centrifuged at 20,000×g. for 30 minutes. The clear supernatant contained the SADH activity. The enzyme activity was measured with a fluorescence spectrophotometer (Perkin Elmer, Model MPF 44A) by following the formation of reduced NAD (EX 340 nm, Em 460 nm). The formation of reduced NAD was also followed with an absorption spectrophotometer at 340 nm. The assay system (3 ml.) contained: potassium phosphate buffer pH 7.0; 150 μmol.; NAD 1 μmol.; a given amount of enzyme preparation; and secondary alcohol 10 μmol. The reaction was started by the addition of substrate. One unit of enzyme activity represents the reduction of one μmole NAD per minute. Protein concentrations were determined by the Lowry method as referenced above.
Assay [4] has as its system Methylocystis parvus (CRL 18 PM4) NRRL B-11,204. Put plainly: Oxidation by washed cell suspensions of methane-grown cells. To be noted: methane-grown washed cells, 30° C.; methane to methanol, alkene to 1,2-epoxide. The format is cell-based. The essentials:
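Products were quantified by gas chromatography (flame ionization) in headspace/liquid samples taken periodically from sealed vials. Each vial held 2 mg washed methane-grown cells in 0.15 M phosphate pH 7.0 under a 1:1 substrate/oxygen gas phase, shaken at 30 °C.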

Turning to `CCC(C)O` (centres unmarked) [2-Butanol], the specific activities in assay [1] (2-butanol as a substrate, spectrophotometrically) is given as 78 nmoles NAD^+ reduced per min. per mg. protein. The “Conversion Rate” value in assay [1] (methanol-grown, cell extract + NAD^+, sec. alcohol to methyl ketone, gas chromatography) turned out to be 4.92 μmoles/hr/mg Protein; in assay [2], 6.2 μmoles/hr/mg Protein. Further, the “Conversion Rate 2-butanol to 2-butanone” value in assay [3] is reported as 25.0 nmoles/min/mg protein.
In the case of `C=CC` [Propylene], the “Oxidative Conversion Rates” value in assay [4] came to 1.5 μmole/hr/mg protein.

The values are drawn from patent publication US4347319A, “Microbiological epoxidation process” (priority 1980, dated 1982).
